Tests used:
Lewis rats = assay: Measurement of in situ muscle contractile characteristics (isometric hindlimb force under cisatracurium block); format: in vivo; conditions: 21.5 mg/kg i.v., cisatracurium infusion, 3 experiments
Procedure: Isometric hindlimb force was measured in 12-week old female Lewis rats in the presence and absence of compound.
Rats were placed under anesthesia with isoflurane (2-4%), intubated and subsequently connected to a micro ventilator (Microvent 1, Hallowell EMC, US). Two stimulation electrodes were inserted through the skin to stimulate the sciatic nerve. A small incision was made proximal to the ankle, to expose the Achilles tendon, which was tied by cotton string, and connected to a force transducer (Fort250, World Precision Instruments) with adjustable position (Vernier control). The Achilles tendon was then cut distal to the attached cotton string. The rat was placed on a heated pad, and to prevent movement artefacts from contraction of the ankle dorsiflexors, the foot was fixated by tape on a footplate.
Muscle contractile properties were assessed by applying an electrical current (under supramaximal voltage conditions) to the nerve and recording the force generated by the muscle. The muscle was stretched until maximal force was obtained, when assessed by 2 Hz stimulation. Isometric force was measured every 30 seconds at 12 Hz (Twitch), 10 pulses, and at every 5 minutes at 80 Hz (Tetanic) for 1 second (80 pulses). This stimulation pattern was employed throughout the experiment, expect in few cases where 80 Hz stimulation was replaced by 12 Hz (10 pulses). […] When the level of neuromuscular inhibition was stable, the test article was injected i.v. at the chosen concentration. The effect of test article was assessed on its ability to increase force generated from the stimulation pattern applied. The effect was assessed in the ability to increase force per se (tetanic, 80 Hz, stimulation), and the ratio between individual twitch peaks (12 Hz stimulation). The effect was monitored for at least 1 hour after injection of test article. In addition, the time from injection of test article to maximal effect on force (both twitch and tetanic) was noted and the time for the effect to disappear (return to baseline), if possible. When appropriate the infusion of neuromuscular blocking agent was ceased, with the stimulation pattern continued, and the return of force to control levels was monitored. Animals were sacrificed by cervical dislocation while still fully sedated.

human CIC-1 channels = target: T1, human CIC-1 channels (Homo sapiens, UniProt P35523); assay: Automated patch-clamp on the human isoform of CIC-1 expressed in CHO cells; format: cell-based; conditions: compound added intracellularly vs control cell patches; positive shift reflects CIC-1 inhibition
T1 construct: host or cells: CHO cells constitutively expressing human ClC-1
T1 sequence (P35523 whole entry, canonical isoform): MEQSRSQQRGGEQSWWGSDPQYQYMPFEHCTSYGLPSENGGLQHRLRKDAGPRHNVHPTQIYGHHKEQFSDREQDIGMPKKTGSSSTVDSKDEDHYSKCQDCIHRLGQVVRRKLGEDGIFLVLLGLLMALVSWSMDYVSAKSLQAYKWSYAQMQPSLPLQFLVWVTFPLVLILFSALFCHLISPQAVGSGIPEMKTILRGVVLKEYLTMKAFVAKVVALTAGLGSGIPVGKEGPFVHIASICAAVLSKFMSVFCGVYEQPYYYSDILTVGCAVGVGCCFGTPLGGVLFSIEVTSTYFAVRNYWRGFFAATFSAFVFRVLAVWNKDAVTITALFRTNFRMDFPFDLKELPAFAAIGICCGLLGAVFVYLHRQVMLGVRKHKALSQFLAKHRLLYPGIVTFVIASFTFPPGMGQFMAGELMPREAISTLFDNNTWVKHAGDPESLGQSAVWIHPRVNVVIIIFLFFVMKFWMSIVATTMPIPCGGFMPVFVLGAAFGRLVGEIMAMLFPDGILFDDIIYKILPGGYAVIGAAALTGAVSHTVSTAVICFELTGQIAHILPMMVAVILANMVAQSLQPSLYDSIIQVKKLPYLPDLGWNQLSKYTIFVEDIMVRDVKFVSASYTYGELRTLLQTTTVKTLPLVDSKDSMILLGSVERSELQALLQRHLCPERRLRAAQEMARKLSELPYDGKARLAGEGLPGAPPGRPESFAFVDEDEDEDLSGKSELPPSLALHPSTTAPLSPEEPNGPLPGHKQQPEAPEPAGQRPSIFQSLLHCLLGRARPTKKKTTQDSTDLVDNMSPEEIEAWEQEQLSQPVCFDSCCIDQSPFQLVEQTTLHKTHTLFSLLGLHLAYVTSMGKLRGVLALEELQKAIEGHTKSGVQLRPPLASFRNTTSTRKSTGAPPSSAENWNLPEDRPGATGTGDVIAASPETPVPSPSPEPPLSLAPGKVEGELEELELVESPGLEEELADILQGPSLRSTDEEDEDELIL
Procedure: The investigatory goal of these experiments was to evaluate how compounds affect the open probability and current amplitude of human CIC-1 channels expressed in CHO cells. Experiments were performed using an automated patch clamp system that allowed high throughput testing of whole cell patches together with both intracellular and extracellular addition of compound.
Automated whole cell patch clamp experiments were performed with the Qpatch 16 system (Sophion Bioscience, Ballerup, Denmark) at room temperature. Data acquisition and analysis were performed in the Qassay software (ver. 5.6, Odense).
To evoke CIC-1 currents in whole cell patches, the membrane potential was initially stepped from a holding potential of -30 mV to +60 mV for 100 ms and then to various test voltages (sweeps) ranging from +120 mV to -140 mV in steps of 20 mV for 300 ms. To obtain tail currents, the membrane potential was stepped to -100 mV after each test voltage for 300 ms and then relaxed to -30 mV for 2 sec between sweeps (Figure 3). I/V relationships for whole cell instant and steady state current amplitudes were obtained by plotting average current densities at the beginning and at the end of the 300 ms step against the membrane potential (Figure 4).
In order to determine the relative overall open probability (P0), the instantaneous tail currents were normalized to the maximal tail current obtained following the most positive voltage step and plotted against the test voltage. Plots of normalized tail currents from each whole cell patch were then fitted to a Boltzmann function allowing determination of half activation voltages (V1/2, Figure 5).
For automated patch clamp experiments extracellular solutions contained: 2 mM CaCl2, 1 mM MgCl2, 10 mM HEPES, 4 mM KCI, 145 mM NaCl, 10 mM Glucose, pH adjusted to 7.4 with NaOH (2 M). Osmolality adjusted to ~320 using sucrose.
Intracellular solutions contained: 80 mM CsF, 60 mM CsCI, 5/1 mM KOH/EGTA, 10 mM HEPES, 10 mM NaCl, pH adjusted to 7.2 with NaOH (2 M). Osmolality adjusted to ~320 mOsm using sucrose.
Cells used in patch clamp experiments were Chinese hamster ovary cells (CHO) constitutively expressing human CIC-1 channels. The amino acid sequence encoded by the cDNA used to create this cell line was identical to the translated sequence for GenBank accession number NM_000083.2. Cells were produced by Charles River (Catalogue CT6175, Cleveland OH, USA) in a cryopreserved format. Experiments were performed on the cells directly after thawing (3 × 10^6 cells used in each experiment).
To evaluate the compound effect on CIC-1, when applied directly to the intracellular side of the cell membrane, the half activation voltage, V1/2, was determined from whole cell patches with compound added to the intracellular solution and then compared to V1/2 determined from control cell patches with only vehicle added to the intracellular solution. Additionally, the effect of extracellular added compound was evaluated by determine V1/2 and steady state current amplitudes before and after exchanging the extracellular solution to contain compound.
The difference in half activation voltage of CIC-1 channels, ΔV1/2, was determined as the difference between the cell patches treated intracellularly with compound and control cells patches and is reported in Table 4 below. A positive shift in ΔV1/2 is reflecting CIC-1 channel inhibition by the tested compound. P-values of <0.05 is considered significant. […]

CIC-1 channels = target: T2, CIC-1 channels (Rattus norvegicus, UniProt P35524); assay: Electrophysiological measurement of compound inhibition of CIC-1 in rat muscle (Gm, three micro-electrode technique, soleus muscle fibres); format: cell-based; conditions: reduction of Gm in rat soleus muscle fibres, approx. 30°C; mean ± spread, n = number of experiments
T2 construct: from tissue; host or cells: whole soleus muscle of 12-14 week old Wistar rats
T2 sequence (P35524 1-994): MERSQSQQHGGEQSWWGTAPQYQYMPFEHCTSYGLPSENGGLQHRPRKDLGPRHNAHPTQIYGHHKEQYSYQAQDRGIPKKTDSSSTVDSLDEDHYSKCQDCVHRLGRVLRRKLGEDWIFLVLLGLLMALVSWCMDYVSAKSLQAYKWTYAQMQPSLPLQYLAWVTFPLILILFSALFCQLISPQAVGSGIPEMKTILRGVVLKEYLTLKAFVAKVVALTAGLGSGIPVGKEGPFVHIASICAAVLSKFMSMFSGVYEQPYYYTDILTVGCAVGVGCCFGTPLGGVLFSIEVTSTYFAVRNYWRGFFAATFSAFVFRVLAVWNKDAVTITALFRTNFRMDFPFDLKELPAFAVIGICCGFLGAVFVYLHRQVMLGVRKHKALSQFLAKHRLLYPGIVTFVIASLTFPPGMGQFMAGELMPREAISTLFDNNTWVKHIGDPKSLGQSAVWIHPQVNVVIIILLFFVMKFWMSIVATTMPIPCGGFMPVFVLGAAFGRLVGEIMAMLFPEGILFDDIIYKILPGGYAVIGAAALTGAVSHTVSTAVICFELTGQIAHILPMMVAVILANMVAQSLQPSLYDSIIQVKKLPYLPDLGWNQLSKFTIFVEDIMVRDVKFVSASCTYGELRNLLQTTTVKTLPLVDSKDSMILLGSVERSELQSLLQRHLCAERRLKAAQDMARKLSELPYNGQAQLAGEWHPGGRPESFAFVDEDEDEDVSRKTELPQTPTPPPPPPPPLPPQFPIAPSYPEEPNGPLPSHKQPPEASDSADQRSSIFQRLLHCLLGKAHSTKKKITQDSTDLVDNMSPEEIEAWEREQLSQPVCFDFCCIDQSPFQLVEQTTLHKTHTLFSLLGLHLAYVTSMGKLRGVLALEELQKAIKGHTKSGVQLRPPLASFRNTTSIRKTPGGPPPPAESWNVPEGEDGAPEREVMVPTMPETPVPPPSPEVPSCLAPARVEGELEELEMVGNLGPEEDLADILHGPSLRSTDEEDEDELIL
Text: Table 2: Inhibition of CIC-1 ion channel using compounds of the invention

soleus muscles = assay: Measurement of force in an in vitro model: recovery of contractile force of isolated rat soleus nerve-muscle preparation after tubocurarine; conditions: Rattus norvegicus, 40 min; 50 µM test compound, after 90 mins 115 nM tubocurarine; percentage of the initial force restored after 40 mins of compound exposure; read-out: Point increase
Procedure: Recovery of force is quantified as the percentage of the force prior to tubocurarine that is recovered by the compound.
The current invention relates to compounds that inhibit CIC-1 ion channels and increase muscle excitability and thereby improve muscle function in clinical conditions where muscle activation is failing. Such conditions result in loss of contractile function of skeletal muscle, weakness and excessive fatigue. In this series of experiments the compounds were tested for their ability to restore contractile function of isolated rat muscle when the neuromuscular transmission had been compromised akin to neuromuscular disorders.
Experimentally, soleus muscles from 4-5 week old rats were isolated with the motor nerve remaining attached. The nerve-muscle preparations were mounted in experimental setups that enabled electrical stimulation of the motor nerve. Stimulation of the motor nerve led to activation of the muscle fibres and ensuing force production that was recorded.
After mounting the nerve-muscle preparation in the experimental setup, the contractile function of the muscle was initially assessed under the control conditions (Figure 2A). […] The experimental condition mimics the failing neuromuscular transmission in a range of neuromuscular disorders. After addition of tubocurarine the contractile force declined over the next 90 mins to 10-50 % of the control force. 50 µM of the test compound was then added and the contractile force recovered despite the continued presence of tubocurarine. To quantify the ability of the compound to restore force the percentage of the initial force that was restored was determined after 40 mins of compound exposure (Figure 2B) and the point increase is reported in Table 3. Table 3: Percentage increase of initial force that was restored

Row | SMILES | ΔV1/2 (human CIC-1 channels) [mV] | EC50 (CIC-1 channels) [µM] | activation at 50 µM (soleus muscles) [%] | other results
1 | C[C@H](Oc1ccc(Br)cc1C1CC1)C(=O)O [Compound A-2, (2S)-2-(4-bromo-2-cyclopropylphenoxy)propanoic acid] | 9.2 | – | – | change in twitch peaks (Lewis rats; 12 Hz stimulation): no significant change; average increase in tetanic force (Lewis rats; 80 Hz stimulation): 28.5%
2 | C[C@H](Oc1ccc(Cl)cc1C1CC1)C(=O)O [Compound A-4, (2S)-2-(4-chloro-2-cyclopropylphenoxy)propanoic acid] | 8.8 | – | – | –
3 | C[C@H](Oc1ccc(Br)cc1C1CCC1)C(=O)O [Compound A-14, (2S)-2-(4-bromo-2-cyclobutylphenoxy)propanoic acid] | – | 4.3 ± 2.3 | 17 | –
4 | C=Cc1cc(Br)ccc1O[C@@H](C)C(=O)O [Compound A-17, (2S)-2-(4-bromo-2-ethenylphenoxy)propanoic acid] | 10.3 | 4.2 ± 0.7 | 21 | –
5 | C#Cc1cc(Cl)ccc1O[C@@H](C)C(=O)O [Compound A-20, (2S)-2-(4-chloro-2-ethynylphenoxy)propanoic acid] | 26.4 | – | – | –
6 | [2H]C([2H])(C)C(=O)c1cc(Cl)ccc1O[C@@H](C)C(=O)O [Compound A-27, (2S)-2-{4-chloro-2-[(2,2-^2H2)propanoyl]phenoxy}propanoic acid] | – | 8.3 | 36 | –
7 | CCC(=O)c1cc(Cl)ccc1O[C@@H](C)C(=O)O [Compound A-30, (2S)-2-(4-chloro-2-propanoylphenoxy)propanoic acid] | 6.2 | – | – | –
8 | C[C@H](Oc1ccc(Br)cc1C=C(F)F)C(=O)O [Compound A-36, (2S)-2-[4-bromo-2-(2,2-difluoroethenyl)phenoxy]propanoic acid] | 21.5 | 3.7 | 16 | –
9 | C[C@H](Oc1cc(F)c(Br)cc1C1CC1)C(=O)O [Compound A-44, (2S)-2-(4-bromo-2-cyclopropyl-5-fluorophenoxy)propanoic acid] | – | – | 12 | –
10 | C#Cc1cc(Br)ccc1O[C@H](C(=O)O)C1CCC1 [Compound A-46, (2S)-2-(4-bromo-2-ethynylphenoxy)-2-cyclobutylacetic acid] | – | 6.1 | – | –
11 | C#Cc1cc(Br)c(F)cc1O[C@@H](C)C(=O)O [Compound A-47, (2S)-2-(4-bromo-2-ethynyl-5-fluorophenoxy)propanoic acid] | – | – | 15 | –
12 | C#Cc1cc(Cl)c(F)cc1O[C@@H](C)C(=O)O [Compound A-48, (2S)-2-(4-chloro-2-ethynyl-5-fluorophenoxy)propanoic acid] | – | – | 14 | –
13 | C=Cc1cc(Br)ccc1O[C@@H](CCF)C(=O)O [Compound A-51, (2S)-2-(4-bromo-2-ethenylphenoxy)-4-fluorobutanoic acid] | – | 4 ± 3 | 27 | –
14 | C[C@H](Oc1ccc(Br)cc1/C=C/F)C(=O)O [Compound A-52, (2S)-2-{4-bromo-2-[(1E)-2-fluoroethenyl]phenoxy}propanoic acid] | – | 3 | – | –
15 | C#Cc1cc(Br)ccc1O[C@@H](CC)C(=O)O [Compound A-54, (2S)-2-(4-bromo-2-ethynylphenoxy)butanoic acid] | – | 7.2 ± 3.5 | 18 | –
16 | O=C(O)COc1ccc(Br)cc1C1CC1 [Compound A-55, 2-(4-bromo-2-cyclopropylphenoxy)acetic acid] | – | 6.4 | 25 | –
17 | C#Cc1cc(Br)ccc1OCC(=O)O [Compound A-56, 2-(4-bromo-2-ethynylphenoxy)acetic acid] | – | – | 14 | –

— EP3723746B1, “PHENOXY ACIDS FOR THE TREATMENT OF NEUROMUSCULAR DISORDERS” (NMD Pharma A/S, priority 2017, dated 2019)
